According to US5500344A, “Serine protease and uses thereof” (The United States of America as represented by the …, priority 1992, dated 1996):
Starred links: 1 amine or outer side, 2 acyl side, 3 side chain; linkers in the order of their positions; H or OH if unused. Non-standard residues stand in square brackets, D forms with d. Residues, ends and D or L forms follow the SMILES beside them. *: point of attachment. Suc = O=C(CCC(=O)[*:2])[*:1]; Nle = CCCC[C@H](N)C(=O)O; Boc = CC(C)(C)OC(=O)*; SBn = c1ccc(CS*)cc1

How the values were obtained:
[1] = molecular target: T1, Met-ase (Rattus norvegicus, UniProt Q03238); assay: Initial rates of peptide thiobenzyl ester substrate hydrolysis by HPLC-purified Met-ase (HPLC fraction 104); format: biochemical; settings: [S] 100-133 μM, pH 7.5, 25° C.
T1 construct: endogenous in cells; host or cells: rat RNK-16 LGL leukemia cells, cytolytic granules, HPLC fraction 104
T1 sequence (Q03238 21-258 limits assumed): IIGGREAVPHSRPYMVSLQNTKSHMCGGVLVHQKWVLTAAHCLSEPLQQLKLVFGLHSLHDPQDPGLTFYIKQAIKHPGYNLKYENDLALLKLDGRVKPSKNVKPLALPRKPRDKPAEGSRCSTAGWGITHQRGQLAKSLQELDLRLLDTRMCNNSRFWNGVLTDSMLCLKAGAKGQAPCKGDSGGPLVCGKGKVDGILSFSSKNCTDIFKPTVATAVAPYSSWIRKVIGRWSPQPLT
Experimental: (§1) Briefly, 50 μl of sample was added to 100 μl of 1 mM DTNB, made up in 10 mM Hepes, 1 mM CaCl2, 1 mM MgCl2, pH7.2. The reaction was initiated by the addition of 50 μl of BLT (Sigma) to give a final concentration of 500 μM. For Metase determinations, 50 μl of dilutions of the sample in 0.1M Hepes, 0.05M CaCl2, pH7.5 were added to 100 μl of 1 mM DTNB and the reaction was initiated by the addition of 50 μl of Boc-Ala-Ala-Met-S Benzyl (Bzl) to give a final concentration of 150 μM. The duration of the assay depended on color development, the rate of which was measured (0.D410) on a Dynatech MR 5000 microplate reader. Controls of sample and DTNB alone or DTNB and substrate alone were run. For more sensitive comparisons of enzymatic activities, peptide thiobenzyl ester substrates were used to measure protease activities. The chymase substrate Suc-Phe-Leu-Phe-SBzl was purchased from BACHEM Bioscience Inc., Philadelphia, Pa. […] Boc-Ala-Ala-Asp-SBzl is the substrate for Asp-ase and peptide thiobenzyl esters containing Met, Leu or Nle are substrates for Met-ase SP. […] The initial rates were measured at 324 nm using a Beckman 35 spectrophotometer when 10-25 μl of an enzyme stock solution was added to a cuvette containing 2.0 ml of buffer, 150 μl of 4,4'-dithiodipyridine and 25 μl of substrate. The same volume of substrate and 4,4'-dithiodipyridine were added to the reference cell in order to compensate for the background hydrolysis rate of the substrates. Initial rates were measured in duplicate for each substrate concentration and were averaged in each case.
(§2) 10 μl of enzyme solution was added to […]

[2] = molecular target: T2, Tryptase (Rattus norvegicus, UniProt P49864); assay: Initial rates of peptide thiobenzyl ester substrate hydrolysis by HPLC-purified Tryptase (HPLC fraction 56); format: biochemical; settings: [S] 100-133 μM, pH 7.5, 25° C.
T2 construct: The BLT-esteraseactivity was found in fractions 49 and 56; endogenous in cells; host or cells: rat RNK-16 NK/LGL leukemia cells, cytolytic granules, HPLC fraction 56
T2 sequence (P49864 26-258): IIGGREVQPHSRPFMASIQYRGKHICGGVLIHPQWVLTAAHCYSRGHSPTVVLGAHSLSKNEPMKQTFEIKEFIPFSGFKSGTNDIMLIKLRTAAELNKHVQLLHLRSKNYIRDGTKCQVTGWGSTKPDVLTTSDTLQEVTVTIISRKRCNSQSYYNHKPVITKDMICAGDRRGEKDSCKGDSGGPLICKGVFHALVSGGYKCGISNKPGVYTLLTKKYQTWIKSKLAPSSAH
Experimental: as §1, §2

[3] = molecular target: T3, Asp-ase (Rattus norvegicus, UniProt P18291); assay: Initial rates of peptide thiobenzyl ester substrate hydrolysis by HPLC-purified Asp-ase; format: biochemical; settings: [S] 100-133 μM, 0.1 M Hepes, 0.01 M CaCl2, pH 7.5, 8% Me2SO, 25° C.
T3 construct: Asp-ase purified by HPLC as previously described; endogenous in cells; host or cells: rat RNK LGL leukemia cells, cytolytic granules, HPLC-purified (Sayers et al. 1992)
T3 sequence (P18291 21-248): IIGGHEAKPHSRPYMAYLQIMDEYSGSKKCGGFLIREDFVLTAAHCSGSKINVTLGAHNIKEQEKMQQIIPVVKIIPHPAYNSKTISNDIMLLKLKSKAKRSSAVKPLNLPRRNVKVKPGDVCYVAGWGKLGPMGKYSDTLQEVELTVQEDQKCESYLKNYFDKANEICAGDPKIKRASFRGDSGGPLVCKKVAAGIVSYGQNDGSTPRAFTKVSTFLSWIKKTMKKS
Experimental: as §1, §2

[4] = molecular target: T4, Boc-Ala-Ala-Asp-SBzl
T4 sequence (peptide, N-terminal Boc; C-terminal thiobenzyl ester (SBzl)): AAD

[5] = molecular target: T5, Boc-Ala-Ala-Ser-SBzl
T5 sequence (peptide, N-terminal Boc; C-terminal thiobenzyl ester (SBzl)): AAS

[6] = molecular target: T6, Suc-Phe-Leu-Phe-SBzl
T6 sequence (peptide, N-terminal Suc; C-terminal thiobenzyl ester (SBzl)): FLF

[7] = molecular target: T7, Boc-Ala-Ala-Met-SBzl
T7 sequence (peptide, N-terminal Boc; C-terminal thiobenzyl ester (SBzl)): AAM

[8] = 25 μl enzyme solution (HPLC fraction 104)
[9] = 10 μl enzyme solution (HPLC fraction 104)
[10] = 10 μl enzyme solution (HPLC fraction 56)

Compound | Initial Rates, Met-ase [1, 8] | Initial Rates, Met-ase [1, 9] | Initial Rates, Tryptase [2, 10] | Initial Rates, Asp-ase ([3]; 10 μl enzyme solution) | other results
CSCC[C@H](NC(=O)[C@H](C)NC(=O)[C@H](C)NC(=O)CCC(=O)O)C(=O)SCc1ccccc1 [Suc--Ala--Ala--Met--SBz1, Suc-Ala-Ala-Met-SBzl] (Suc-Ala-Ala-Met-SBn) | 10.1 nM/s | – | – | – | –
CC(C)C[C@H](NC(=O)[C@H](C)NC(=O)[C@H](C)NC(=O)OC(C)(C)C)C(=O)SCc1ccccc1 [Boc--Ala--Ala--Leu--SBz1] (Boc-Ala-Ala-Leu-SBn) | – | 2.9 nM/s | – | – | –
CC(C)C[C@H](NC(=O)[C@H](Cc1ccccc1)NC(=O)CCC(=O)O)C(=O)N[C@@H](Cc1ccccc1)C(=O)SCc1ccccc1 [Suc--Phe--Leu--Phe--SBz1, Suc-Phe-Leu-Phe-SBzl] (Suc-Phe-Leu-Phe-SBn) | – | 0 nM/s | 0 nM/s | 0 nM/s | –
Asp-ase (RNKP-1) (from UniProt P18291) (enzyme) | – | – | – | – | Initial Rates [4]: 12.6 nM/s; Initial Rates [5]: 1.3 nM/s; Initial Rates [6]: 0 nM/s; Initial Rates [7]: 0 nM/s
N=C(N)NCCC[C@H](NC(=O)OCc1ccccc1)C(=O)SCc1ccccc1 [Z--Arg--SBz1, Z-Arg-SBzl] | – | 0 nM/s | 22.7 nM/s | 0 nM/s | Initial Rates, Tryptase ([2]; 25 μl enzyme solution (HPLC fraction 56)): 93.4 nM/s
CCCC[C@H](NC(=O)[C@H](C)NC(=O)[C@H](C)NC(=O)OC(C)(C)C)C(=O)SCc1ccccc1 [Boc--Ala--Ala--Nle--SBz1] (Boc-Ala-Ala-[Nle]-SBn) | 15.2 nM/s | 3.9 nM/s | – | – | –
C[C@H](NC(=O)OC(C)(C)C)C(=O)N[C@@H](C)C(=O)N[C@@H](CO)C(=O)SCc1ccccc1 [Boc--Ala--Ala--Ser--SBz1] (Boc-Ala-Ala-Ser-SBn) | – | 0 nM/s | 0.4 nM/s | 1.3 nM/s | Initial Rates, Asp-ase ([3]; 25 μl enzyme solution): 6.7 nM/s
C[C@H](NC(=O)OC(C)(C)C)C(=O)N[C@@H](C)C(=O)N[C@@H](CC(=O)O)C(=O)SCc1ccccc1 [Boc--Ala--Ala--Asp--SBz1, Boc-Ala-Ala-Asp-SBzl] (Boc-Ala-Ala-Asp-SBn) | – | 0 nM/s | 0 nM/s | 12.6 nM/s | Initial Rates, Asp-ase ([3]; 25 μl enzyme solution): 44.6 nM/s
CSCC[C@H](NC(=O)[C@H](C)NC(=O)[C@H](C)NC(=O)OC(C)(C)C)C(=O)SCc1ccccc1 [Boc--Ala--Ala--Met--SBz1, Boc-Ala-Ala-Met-S Benzyl (Bzl)] (Boc-Ala-Ala-Met-SBn) | 13.7 nM/s | 4.2 nM/s | 0 nM/s | 0 nM/s | –
